The structures appear in SMILES notation.

One may read the inhibition in vivo as the change of the read-out against control, counted positive when it falls. High values mean a strong effect, low ones a weak effect.

One assay addresses T1, 5-Lipoxygenase (Rattus norvegicus, UniProt P12527).
T1 construct: RBL-1 cells (rat basophilic leukemia cells); endogenous in cells; host or cells: RBL-1 (rat basophilic leukemia cells)
T1 sequence (P12527 1-673): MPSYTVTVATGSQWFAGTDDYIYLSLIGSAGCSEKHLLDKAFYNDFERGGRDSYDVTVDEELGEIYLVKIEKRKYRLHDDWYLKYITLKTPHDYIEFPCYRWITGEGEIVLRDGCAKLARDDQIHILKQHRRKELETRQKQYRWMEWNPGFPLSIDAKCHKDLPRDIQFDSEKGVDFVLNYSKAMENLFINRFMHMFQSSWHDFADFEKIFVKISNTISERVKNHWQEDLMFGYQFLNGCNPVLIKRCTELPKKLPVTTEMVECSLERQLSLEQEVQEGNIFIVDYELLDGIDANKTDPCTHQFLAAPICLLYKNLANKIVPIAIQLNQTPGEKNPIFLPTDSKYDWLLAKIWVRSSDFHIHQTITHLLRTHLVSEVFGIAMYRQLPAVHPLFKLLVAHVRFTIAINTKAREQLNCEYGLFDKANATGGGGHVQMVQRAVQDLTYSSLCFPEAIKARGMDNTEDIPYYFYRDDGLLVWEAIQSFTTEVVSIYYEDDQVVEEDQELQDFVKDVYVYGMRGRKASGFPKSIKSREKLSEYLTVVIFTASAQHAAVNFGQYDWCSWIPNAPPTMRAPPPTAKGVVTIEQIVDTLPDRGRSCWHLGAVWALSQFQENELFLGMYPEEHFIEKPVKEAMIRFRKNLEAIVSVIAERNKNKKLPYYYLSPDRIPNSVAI
Kind of assay: 5-Lipoxygenase inhibitory activity (5-HETE production in RBL-1 cells). The conditions noted are these: read-out: Inhibitory effect on 5-HETE production (%). The class given is cell-based. As for the experimental part:
5-Lipoxygenase inhibitory activity
Method: 10^7 RBL-1 cells (rat basophilic leukemia cells) were suspended in 0.5 ml of MCM (mast cell medium), and test solutions (made up of 0.5 ml of MCM, 50 μg of arachidonic acid, 10 μg of A-23187 (calcium ionophore) and 1 μM, 0.01 μM and 0.001 μM as the final concentration of the phenol compound, respectively) prepared previously were added respectively to the suspension, followed by reaction at 37° C. for 20 minutes. After the conclusion of the reaction, 4 ml of ethanol and 1,4-dimethoxy-2-methyl-3-(3-methoxypropyl)naphthalene as the internal reference drug were added to the reaction solution, and the mixture was shaken thoroughly and allowed to stand at room temperature for 10 minutes. Then, it was centrifuged (2000 r.p.m.) for 10 minutes, and the supernatant fluid was separated and concentrated to dryness under reduced pressure. 0.5 ml of 60% aqueous methanol was added to the concentrate, and 100 μl of the resulting solution was taken and subjected to high-performance liquid chromatography to determine the amount of 5-HETE (5-hydroxy-eicosatetraenoic acid). Determination of 5-HETE was made through measurement of an absorption at 237 nm with a UV absorption monitor.
The 5-HETE production inhibitory effect (IE) was expressed by [formula] wherein a is a peak height or peak area corrected by the peak for the internal reference when the phenol compound is not contained; b is a peak height or peak area corrected by the peak for the internal reference when the phenol compound is contained.

Assay [1] has as its system lipid peroxides production in rat brain homogenates. Kind of assay: Inhibitory action on lipid peroxides production in rat brain homogenates. It is filed as biochemical. The note with it: 10^-5 M. As for the experimental part:
Inhibitory action on lipid peroxides production in rat brain homogenates
Method: The male SD rat brain tissue was used as 5% homogenate in phosphate-buffered solution. After incubation of the homogenate for 1 hour at 37° C., the amount of lipid peroxides produced was determined by the thiobarbituric acid method according to the description of Ohkawa et al. (Analytical Biochemistry, 95: 551, 1979)
Test compounds were used as a solution of dimethylsulfoxide. The inhibitory action on lipid peroxide production was expressed as a % inhibition as compared with the amount of production in the vehicle group.

Assay [2] deals with T2, Thromboxane A2 (TXA2) receptor (Oryctolagus cuniculus, UniProt Q6WQI8).
T2 construct: contraction by TXA2 mimics U-44069 or U-46619
T2 sequence (Q6WQI8 1-233): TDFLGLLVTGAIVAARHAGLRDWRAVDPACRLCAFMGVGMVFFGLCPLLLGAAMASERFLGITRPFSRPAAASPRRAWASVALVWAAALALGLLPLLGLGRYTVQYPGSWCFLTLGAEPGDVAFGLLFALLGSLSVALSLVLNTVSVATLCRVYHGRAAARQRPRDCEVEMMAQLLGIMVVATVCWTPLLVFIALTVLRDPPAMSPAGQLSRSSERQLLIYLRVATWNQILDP
Kind of assay: Thromboxane A2 (TXA2) receptor antagonism: inhibitory effect on contraction of rabbit aorta by TXA2-mimics. The note with it: U-44069 (10^-7 M)-induced contraction. It is filed as cell-based.

Assay [3] concerns U-46619 (TXA2 mimic)-induced broncho-constriction. Kind of assay: Inhibitory effect on U-46619 (TXA2 mimic)-induced broncho-constriction in guinea pig. It is filed as in vivo. The conditions noted are these: Cavia porcellus, iv; 0.31 mg/kg i.v., 9 minutes before U-46619; ** p < 0.01.

Turning to `Cc1c(C)c(Br)c(C)c(C(CCCCCC(=O)O)c2ccc(F)cc2)c1O` (stereo not shown) [Compound 12, 7-(5-bromo-2-hydroxy-3,4,6-trimethylphenyl)-7-(4-fluorophenyl)heptanoic acid], the inhibition at 10 µM at 5-Lipoxygenase (10^-5 M) amounted to 96%; in assay [2] (10^-5 M), 100%. Also, the inhibition at 1 µM at 5-Lipoxygenase (10^-6 M) was 22%; in assay [2] (10^-6 M), 79%. Moreover, the “Inhibition (%)” value in assay [1] was 100%. This compound also had an inhibition at 0.1 µM in assay [2] (10^-7 M) of 12%. In addition, the inhibition in vivo at 0.31 mg/kg in assay [3] was 96%.

Values taken from patent publication US5162571A, “Phenol derivatives, their production and use” (Takeda Chemical Industries, Ltd., priority 1987, dated 1992).
